Measurements as given in ChEMBL document CHEMBL5346919, “Toward anthelmintic drug candidates for toxocariasis: Challenges and recent developments” (2023).

Key:
Type in all cases: functional
Toxocara canis [1] = test: Antiparasitic activity against Toxocara canis infected in mouse assessed as worm burden reduction in muscles at 350 mg/kg,sc administered twice a day relative to control; design: scale not given: the % may be the effect or the level left
Toxocara canis [2] = test: Antiparasitic activity against Toxocara canis infected in mouse assessed as worm burden reduction in muscles at 25 mg/kg,sc administered twice a day for 5 days relative to control; design: scale not given: the % may be the effect or the level left; details: time 5 day
Toxocara canis [3] = test: Antiparasitic activity against Toxocara canis infected in mouse assessed as worm burden reduction in brain at 25 mg/kg,sc administered twice a day for 5 days relative to control; design: scale not given: the % may be the effect or the level left; details: time 5 day
Toxocara canis [4] = test: Antiparasitic activity against Toxocara canis infected in mouse assessed as worm burden reduction in brain at 150 mg/kg,sc administered twice a day relative to control; design: scale not given: the % may be the effect or the level left
Toxocara canis [5] = test: Antiparasitic activity against Toxocara canis infected in mouse assessed as worm burden reduction in brain at 100 mg/kg,po administered twice a day for 5 days relative to control; design: scale not given: the % may be the effect or the level left; details: time 5 day
Toxocara canis [6] = test: Antiparasitic activity against Toxocara canis infected in mouse assessed as worm burden reduction in brain at 25 mg/kg,po or sc administered twice a day for 5 days relative to control; design: scale not given: the % may be the effect or the level left; details: time 5 day
Toxocara canis [7] = test: Antiparasitic activity against Toxocara canis assessed as larvicidal activity at 1100 uM measured after 48 hrs relative to control
Toxocara canis [8] = test: Antiparasitic activity against Toxocara canis infected in mouse assessed as worm burden reduction in muscles at 25 mg/kg,po or sc administered twice a day for 5 days relative to control; design: scale not given: the % may be the effect or the level left; details: time 5 day
Toxocara canis [9] = test: Antiparasitic activity against Toxocara canis assessed as relative mobility at 1 to 10000 uM measured after 24 hrs by; details: dose 1-10000 µM, read-out: ED50 (the source's name)
Toxocara canis [10] = test: Antiparasitic activity against Toxocara canis assessed as larvicidal activity at 192 uM measured after 48 hrs relative to control
Toxocara canis [11] = test: Antiparasitic activity against Toxocara canis assessed as relative mobility
Toxocara canis [12] = test: Antiparasitic activity against Toxocara canis j2 larvae assessed as relative mobility at 18 uM measured after 48 hrs
Toxocara vitulorum [13] = test: Antiparasitic activity against Toxocara vitulorum infected in assessed as decrease in number of larvae in lung at 40 mg/kg,po measured after 7 days; details: 168 h, time 7 day
Toxocara vitulorum [14] = test: Antiparasitic activity against Toxocara vitulorum infected in assessed as decrease in number of larvae in liver at 40 mg/kg,po measured after 7 days; details: 168 h, time 7 day
Toxocara canis [15] = test: Antiparasitic activity against Toxocara canis infected in dog assessed as egg burden reduction at 50 mg/kg,po measured after 3 days; design: scale not given: the % may be the effect or the level left; details: time 3 day
Toxocara cati [16] = test: Antiparasitic activity against Toxocara cati infected in cat assessed as worm burden reduction at 25 mg/kg,po measured after 3 days; design: scale not given: the % may be the effect or the level left; details: time 3 day
Toxocara cati [17] = test: Antiparasitic activity against Toxocara cati infected in cat assessed as worm burden reduction at 50 mg/kg, po measured after 2 days; design: scale not given: the % may be the effect or the level left; details: time 2 day

With `CCCSc1ccc2[nH]c(NC(=O)OC)nc2c1` [ALBENDAZOLE] the Activity (Toxocara canis [1]) was 37.5%, the Activity (Toxocara canis [2]) was 70% and the Activity (Toxocara canis [3]) was 92.2%. The Activity (Toxocara canis [4]) was 54.2%, the Activity (Toxocara canis [5]) was 100% and the Activity (Toxocara canis [6]) was 66.1%.
`C=CCOC1=CC(=O)c2ccccc2C12CO2` (stereo not given) was tested, and the Activity (Toxocara canis [7]) was 100%.
`COC(=O)Nc1nc2cc(Sc3ccccc3)ccc2[nH]1` [FENBENDAZOLE] gave an Activity (Toxocara canis [2]) of 55.7%, an Activity (Toxocara canis [3]) of 44.7% and an Activity (Toxocara canis [8]) of 89.5%.
With `COc1ccc(Cc2nccc3cc(OC)c(OC)cc23)cc1OC` [PAPAVERINE] the EC50 (Toxocara canis [9]) was 250 µM.
Molecule `CC1(C)CCC2=C(O1)C1(CO1)c1ccccc1C2=O` (stereo not given) has an Activity (Toxocara canis [10]) of 100% and an Activity (Toxocara canis [7]) of 100%.
`OCCCC1NCCc2c1[nH]c1ccccc21` (stereo not given) showed an ED (Toxocara canis [11]) of 59.9 µM.
With `COc1cc2c(cc1OC)-c1c(C)c3ccc(OC)c(OC)c3c[n+]1CC2` [DEHYDROCORYDALINE] the EC50 (Toxocara canis [9]) was 295 µM.
With `CCCSc1ccc2c(c1)nc(NC(=O)OC)n2COC(C)=O` the Activity (Toxocara canis [12]) was 30%.
`Cc1ccc(C(C)C)c(O)c1` [THYMOL] was tested, and the inhibition in vivo at 40 mg/kg (Toxocara vitulorum [13]) was 66.7% and the inhibition in vivo at 40 mg/kg (Toxocara vitulorum [14]) was 58.5%.
With `CC1(C)CC2=C(O1)C1(CO1)c1ccccc1C2=O` (stereo not given) the Activity (Toxocara canis [7]) was 100%.
`CC1(C)CCC2=C(O1)C1(CO1)C1=C(CCCC1)C2=O` (stereo not given) gave an Activity (Toxocara canis [7]) of 100%.
For `O=C(Nc1ccc(N=C=S)cc1Cl)c1cc(Br)cc(Br)c1O`, the Activity (Toxocara canis [15]) was 100%, the Activity (Toxocara cati [16]) was 100% and the Activity (Toxocara cati [17]) was 100%.
For `O=C1C(Cl)=C(Cl)C2(CO2)c2ccccc21` (stereo not given), the Activity (Toxocara canis [7]) was 100%.
Molecule `COc1ccc2c(c1OC)CN(C)CCc1cc3c(cc1C(=O)C2)OCO3` [ALLOCRYPTOPINE] has an EC50 (Toxocara canis [9]) of 349 µM.
